This note sets out measurements from article PMC3556473, “Absorption, metabolism and excretion of [^14C]pomalidomide in humans following oral administration” (Cancer Chemotherapy and Pharmacology, 2012).

In one data set the test system is PBMC TNF-α production. The data set is described as follows: Inhibition of TNF-α production by LPS-stimulated human PBMC (1-day culture). Format: cell-based. The settings on record: 24 h. The protocol:
(§1) Metabolites and hydrolysis products of pomalidomide were tested for pharmacological activity in the following three assay systems: (1) inhibition of MM cell proliferation, (2) enhancement of primary human T cell IL-2 production and (3) inhibition of TNF-α production by lipopolysaccharide (LPS)-stimulated human peripheral blood mononuclear cells (PBMC). For all three assay types, compounds were dissolved in 100 % dimethyl sulfoxide (DMSO) and diluted into complete cell culture medium, consisting of Roswell Park Memorial Institute (RPMI)-1640 plus penicillin, streptomycin and L-glutamine (Mediatech, Manassas, VA). The MM cell proliferation cell culture medium contained 10 % fetal bovine serum, while the primary human cell cultures contained 10 % human AB serum (Invitrogen, Brown Deer, WI). The final DMSO concentration in the cell culture media was 0.25 %.
(§2) The human MM cell line OPM-2 was obtained from DSMZ (Braunschweig, Germany), and human MM cell lines U266 B1 and NCI-H929 were obtained from ATCC (Manassas, VA). Inhibition of MM cell proliferation was assessed by the [^3H]-thymidine incorporation assay in a 3-day culture in the presence of compounds in complete medium, as previously described. Primary human T cells were isolated from PBMC by negative selection using the RosetteSep T Cell Enrichment Cocktail (STEMCELL Technologies, Tukwila, WA) according to the manufacturer’s procedures. Costimulation of T cell IL-2 production was measured in a 2-day culture of primary human T cells isolated from healthy donors stimulated with anti-CD3 antibody in the presence of compounds, as previously described. Inhibition of TNF-α production by LPS-stimulated human PBMC was measured in a 1-day culture in the presence of compound, as previously described.

The nature of data set [1]: Plasma pharmacokinetics of pomalidomide and circulating metabolites by radiochromatography (metabolite profiling). The settings on record: for Plasma (% AUC relative to TRA): AUC0–24 (unchanged drug or metabolite)/AUC0–24 (TRA) * 100 %; for Tmax / half-life: human, oral, 2 mg; for Tmax / half-life / AUC0–24 / AUC0−∞ / C max: plasma, radiochromatography; for Tmax: median and range; for half-life: male, read-out: t ½ (converted); for half-life / AUC0–24 / AUC0−∞ / C max: geometric mean (%CV); for AUC/AUCTRA: plasma exposure relative to total radioactivity. It counts as in vivo, human. Set-up: key to Plasma (% AUC relative to TRA): ND: not detected; D: detected by MS, but at concentrations too low to accurately quantify by radiochromatography; AUC0–24 / AUC0−∞: concentration or dose not given beside the values. Here is the method: Individual plasma samples collected from all subjects at 1, 2.5, 4, 6, 10, 12 and 24 h post-dose were analyzed for metabolite profiling. Samples were extracted with acetonitrile, the supernatant was removed, and the pellet was washed with 0.1 % formic acid in water and extracted again with acetonitrile. The combined supernatants were adjusted to 15 or 25 mL by adding acetonitrile then evaporated to dryness under a stream of nitrogen. The residues were re-suspended in 0.1 % formic acid in water, assayed for extraction recovery and analyzed for metabolite profiling. A control plasma sample spiked with [^14C]pomalidomide was extracted in a similar manner to determine the extraction efficiency and stability of [^14C]pomalidomide.
(§3) HPLC analysis for metabolite profiling (HPLC Method 1) was performed using a Waters 2695 Alliance Separation Module (Waters Corp., Milford, MA) with the autosampler set to 4 °C. [^14C]Pomalidomide and metabolites were separated using an ACE C18 column (150 × 4.6 mm, 3 μm; Advanced Chromatography Technologies, Aberdeen, Scotland) equipped with an ACE C18 guard column (10 × 3 mm, 3 μm). The mobile phases used were 25 mM ammonium acetate in water: pH 5.5 with formic acid (mobile phase A) and methanol (mobile phase B). The column temperature was 30 °C, and the flow rate was 0.7 mL/min. The linear gradient was delivered as follows: 0–2 min 100 % A; 2–38 min to 64 % A; 38–44 min to 0 % A; 44–48 min hold at 0 % A; return to initial conditions over 2 min.
(§4) Radioactivity profiles for plasma and excreta were determined by collecting the column eluate into 96-well Deepwell LumaPlates™ at a rate of 0.25 min/fraction. The plates were dried and the radioactivity in each well determined using a PerkinElmer TopCount® NXT™ Microplate Scintillation Counter. HPLC radiochromatograms were reconstructed using LC-ARC data handling software.
For pomalidomide and metabolite concentrations in plasma based on metabolite profiling data, pharmacokinetic data were generated by non-compartmental analysis of plasma versus time profiles using WinNonlin (version 4.1, Enterprise Edition).

For the next data set, the system named is U266 MM cell. The data set is described as follows: Inhibition of MM cell proliferation ([3H]-thymidine incorporation, 3-day culture). Format: cell-based. The settings on record: Homo sapiens, U-266. Here is the method:
as §1, §2

For another data set, the system named is H929 MM cell. The description is as above. Format: cell-based. The settings on record: Homo sapiens, NCI-H929. The protocol: as §1, §2
For another data set, the system named is OPM-2 MM cell. The description is as above. Format: cell-based. The settings on record: Homo sapiens. The protocol:
as §1, §2

The next data set deals with T cell IL-2 production. The experiment in a line: Enhancement of primary human T cell IL-2 production (anti-CD3 stimulated, 2-day culture). It counts as cell-based. The settings on record: 48 h, anti-CD3 stimulated primary human T cells. Here is the method: as §1, §2
Data set [2] is described as follows: Metabolite profiling of urine and feces (% of dose excreted). It counts as in vivo, human. The arrangement: key to % of dose excreted, Feces / % of dose excreted, Urine: ND: not detected; D: detected by MS, but at concentrations too low to accurately quantify by radiochromatography. The settings on record: radiochromatography; for % of dose excreted, Urine: pooled urine 0–72 h; for % of dose excreted, Feces: pooled feces 0–96 h. The protocol: For each subject, urine samples were pooled using an equal percentage by volume of the 0–6, 6–12, 12–24, 24–48 and 48–72 h samples. Pools of the 0–6, 6–12, 12–24, 24–48 and 48-72 h collections were also prepared across subjects and analyzed for metabolite profiling. Samples were mixed and centrifuged prior to the supernatants being transferred to fresh tubes for metabolite profiling analysis.
For each subject, fecal homogenates for metabolite profiling were pooled using an equal percentage by weight of the 0–24, 24–48, 48–72 and 72–96 h samples. Pools of the 0–24, 24-48, 48–72 and 72–96 h collections were also prepared across subjects and analyzed for metabolite profiling. An aliquot of each pool was extracted with acetonitrile; samples were mixed and centrifuged. The supernatant was removed and the pellets re-suspended with 0.1 % formic acid and extracted with acetonitrile. The combined supernatants were evaporated to dryness under a stream of nitrogen and the residue re-suspended in methanol:0.1 % formic acid in water (1:1). Samples were assayed for extraction recovery prior to metabolite profiling. A control fecal homogenate spiked with [^14C]pomalidomide was extracted in a similar manner to determine the extraction efficiency and stability of [^14C]pomalidomide.
as §3, §4

In data set [3] the test system is recombinant human CYP (rCYP) enzymes. The data set is described as follows: Incubations of [14C]pomalidomide with 10 recombinant human CYP enzymes, radiochromatography / LC–MS/MS. Format: in vitro ADME. Here is the method: The CYP enzymes responsible for the formation of the hydroxy pomalidomide metabolites were investigated using 10 recombinant human CYP (rCYP) enzymes (CYP1A2, CYP2A6, CYP2B6, CYP2C8, CYP2C9, CYP2C19, CYP2D6, CYP2E1, CYP3A4 and CYP3A5) at 100 pmol/mL. Incubations were prepared using [^14C]pomalidomide (1 μM) in 0.1 M potassium phosphate buffer (pH 7.4) with 4 mM MgCl2, pre-incubated for 5 min at 37 °C. Reactions were initiated by the addition of 1 mM NADPH and continued for 30 or 60 min. Reactions were quenched with two volumes of ice-cold 0.1 % formic acid in acetonitrile containing [^13C5]pomalidomide as internal standard. The samples were mixed and centrifuged, and a subsample of the supernatant evaporated to dryness. The resulting pellet was reconstituted in 0.1 % formic acid in water and acetonitrile (4:1, v/v) and analyzed using HPLC with radiochromatography and/or LC–MS/MS. The rate of formation of the notable human metabolite M17 was calculated and scaled to human in vivo situation using relative abundance method.

Values joined by “and” are separate entries in the source; they are usually repeats but may differ in a detail not shown here. Equal entries are not always repeated. Where only a bound is given, the exact number is not on record here.

As a reminder, the IC50 is the concentration needed to halve the response being measured. For orientation: EC50 means the midpoint of the concentration-response curve. As for `Nc1cccc2c1C(=O)N(C1CC(O)C(=O)NC1=O)C2=O` (stereo not drawn) [Metabolite M19], the IC50 in the data set on PBMC TNF-α production is 2300 nM; in the data set with U266 MM cell, more than 1000 nM; in the data set on H929 MM cell, more than 1000 nM; in the data set on OPM-2 MM cell, more than 1000 nM. Further, the “Plasma (% AUC relative to TRA)” value in data set [1] is given as “D”. For the same compound, the EC50 in the data set on T cell IL-2 production was found to be 1500 nM. The “% of dose excreted, Urine” value in data set [2] is reported as “D”.
Turning to `CC(=O)Nc1cccc2c1C(=O)N(C1CCC(=O)NC1=O)C2=O` (stereo not drawn) [Metabolite M18, N-acetyl pomalidomide], the IC50 was more than 10000 nM with PBMC TNF-α production, more than 1000 nM with U266 MM cell, more than 1000 nM in the data set with H929 MM cell and more than 1000 nM with OPM-2 MM cell. Moreover, the “Plasma (% AUC relative to TRA)” value in data set [1] is “D”. In the data set with T cell IL-2 production, the EC50 was more than 10000 nM. Moreover, the “% of dose excreted, Feces” value in data set [2] is “D”. Moreover, in data set [2], the “% of dose excreted, Urine” value worked out at 0.1%.
As a reminder, the Tmax is the time at which the peak concentration occurs. As to `Nc1ccc(O)c2c1C(=O)N(C1CCC(=O)NC1=O)C2=O` (stereo not drawn) [Metabolite M16, 7-hydroxy pomalidomide], in data set [3] (any of the samples analyzed), the “formation of metabolite in rCYP incubations (LC–MS/MS)” value is given as “not observed”. This compound gave an IC50 in the data set with PBMC TNF-α production of more than 10000 nM. Further, in data set [1], the “Plasma (% AUC relative to TRA)” value turned out to be 6.1%, the Tmax came out at 1 h, the half-life was 14.2 h and the AUC/AUCTRA turned out to be 6.13%. In data set [1], the “AUC0–24” value is on record as 11.9 (16.8) ngEq*h/mL, the “AUC0−∞” value is reported as 17.6 (29.9) ngEq*h/mL and the C max is 0.907 (27.4) ngEq/mL. Moreover, the IC50 in the data set on U266 MM cell is more than 1000 nM. This compound also registered an IC50 in the data set on H929 MM cell of more than 1000 nM. The same compound gave an IC50 with OPM-2 MM cell of more than 1000 nM. For the same compound, the EC50 in the data set on T cell IL-2 production is more than 10000 nM. For the same compound, in data set [2], the “% of dose excreted, Urine” value is recorded as 7.0%.
For `NC(=O)CCC(C(=O)O)N1C(=O)c2cccc(N)c2C1=O` (stereo not drawn) [Metabolite M11], in data set [3] (all rCYP incubations of [14C]pomalidomide 1 μM), the “level of metabolite detected by radiochromatography in rCYP incubations” value is reported as 2.5–5.9%. The “level of metabolite detected by radiochromatography in the absence of enzyme” value in data set [3] (incubations of [14C]pomalidomide without enzyme) was found to be 5.5%. The 50% inhibitory concentration (IC50) with PBMC TNF-α production was more than 10000 nM. For the same compound, in data set [1], the “Plasma (% AUC relative to TRA)” value is given as 6.3%, the Tmax was 2.5 h, the half-life is 10 h and the AUC/AUCTRA is on record as 6.34%. Also, in data set [1], the “AUC0–24” value is listed as 12.3 (43.6) ngEq*h/mL, the “AUC0−∞” value is reported as 15.9 (59.7) ngEq*h/mL and the C max is given as 0.965 (33.3) ngEq/mL. Further, the IC50 in the data set on U266 MM cell is more than 1000 nM. The IC50 in the data set on H929 MM cell was more than 1000 nM. The compound also had an IC50 in the data set with OPM-2 MM cell of more than 1000 nM. Further, the EC50 in the data set on T cell IL-2 production is more than 10000 nM. Besides, in data set [2], the “% of dose excreted, Feces” value is reported as 0.3%; the “% of dose excreted, Urine” value was 23% and 23.3%.
